# Measurements as given in patent US10988523B2, “Modified lipidated Relaxin B chain peptides and their therapeutic use” (Sanofi, priority 2018, dated 2021).
# *1 amine or outer side, *2 acyl side, *3 side chain or, on linkers, in order; H or OH if unused. Where a SMILES comes first, the peptide text is derived from it. Side-chain parts run from the residue outwards. [ ]: non-standard residue; d: D form. The star is where a group is joined. γGlu = O=C(O)[C@H](CCC(=O)[*:2])N[*:1]; Stearoyl = CCCCCCCCCCCCCCCCCC(=O)*; Palmitoyl = CCCCCCCCCCCCCCCC(=O)*; PEG4 = NCCOCCOCCOCCOCCC(=O)O; Lauroyl = CCCCCCCCCCCC(=O)*; Nle = CCCC[C@H](N)C(=O)O; AEEA = NCCOCCOCC(=O)O; Aib = CC(C)(N)C(=O)O
# Target: T1, RXFP1 (Homo sapiens, UniProt Q9HBX9)
# T1 construct: OVCAR5 cells expressing endogenous RXFP1; endogenous in cells; host or cells: OVCAR5 cells
# T1 sequence (Q9HBX9 1-757): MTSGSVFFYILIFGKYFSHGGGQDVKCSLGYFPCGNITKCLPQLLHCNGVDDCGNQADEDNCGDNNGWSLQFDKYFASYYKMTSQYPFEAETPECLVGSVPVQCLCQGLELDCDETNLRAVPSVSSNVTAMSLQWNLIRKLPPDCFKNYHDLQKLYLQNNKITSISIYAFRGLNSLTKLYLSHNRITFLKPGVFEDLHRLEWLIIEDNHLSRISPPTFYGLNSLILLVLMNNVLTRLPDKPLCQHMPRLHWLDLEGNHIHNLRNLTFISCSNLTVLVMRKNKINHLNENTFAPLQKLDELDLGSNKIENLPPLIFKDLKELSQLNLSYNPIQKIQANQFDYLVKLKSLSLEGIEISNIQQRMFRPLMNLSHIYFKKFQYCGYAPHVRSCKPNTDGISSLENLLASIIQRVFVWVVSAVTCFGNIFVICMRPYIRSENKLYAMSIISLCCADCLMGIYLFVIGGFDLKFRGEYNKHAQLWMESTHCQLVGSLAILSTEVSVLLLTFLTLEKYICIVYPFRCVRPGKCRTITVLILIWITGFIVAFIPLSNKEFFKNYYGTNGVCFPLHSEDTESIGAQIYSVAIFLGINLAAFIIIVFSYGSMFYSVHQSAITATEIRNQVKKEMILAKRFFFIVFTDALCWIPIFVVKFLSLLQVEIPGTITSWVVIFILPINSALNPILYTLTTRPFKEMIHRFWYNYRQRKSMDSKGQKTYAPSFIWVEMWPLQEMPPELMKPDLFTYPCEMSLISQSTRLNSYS
# Assay: OVCAR5 cAMP assay (HTRF), RXFP1 agonist activity
# Type: cell-based
# Conditions: OVCAR5 cells, cAMP HTRF; read-out: EC50 (nM), OVCAR 5 cells (cAMP)
# Outline: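 OVCAR5 cells (endogenous RXFP1) pretreated 40 min at 37° C with 1 mM IBMX, then exposed to peptides in serum-free medium for 30 min at 37° C. Lysate cAMP read by HTRF; EC50 from variable-slope sigmoidal fit; Emax as % of H2-relaxin maximal cAMP in same run.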
row,EC50 [nM],SMILES
1,1.21,CCCCCCCCCCCCCCCC(=O)N[C@@H](CCC(=O)NCCCC[C@H](NC(=O)CC[C@H](NC(=O)CC[C@H](NC(=O)COCCOCCNC(=O)COCCOCCNC(=O)COCCOCCNC(=O)[C@H](CCCCNC(C)=O)NC(=O)[C@H](CCCCN)NC(=O)[C@H](CCCNC(=N)N)NC(=O)C(C)(C)NC(=O)[C@H](CO)NC(=O)[C@H](Cc1c[nH]c2ccccc12)NC(=O)[C@@H](NC(=O)[C@H](CO)NC(=O)[C@H](CCCC)NC(=O)CNC(=O)[C@H](CCC(=O)O)NC(=O)C(C)(C)NC(=O)C(C)(C)NC(=O)[C@@H](NC(=O)[C@H](CCC(N)=O)NC(=O)[C@H](C)NC(=O)[C@H](CCCNC(=N)N)NC(=O)[C@@H](NC(=O)[C@H](CCCCN)NC(=O)[C@H](CCC(=O)O)NC(=O)[C@H](CCCNC(=N)N)NC(=O)CNC(=O)[C@H](CCC(=O)O)NC(=O)[C@H](CC(C)C)NC(C)=O)C(C)C)[C@@H](C)CC)[C@@H](C)O)C(=O)O)C(=O)O)C(N)=O)C(=O)O [compound 119] (Ac-LEGREKVRAQI[Aib][Aib]EG[Nle]STWS[Aib]RKK(Ac)[AEEA][AEEA][AEEA][γGlu][γGlu]K([γGlu-Palmitoyl])-NH2)

# Same assay, conditions: OVCAR-5; maximal cAMP relative to H2-relaxin maximum (100%); read-out: EMax, OVCAR 5 cells (cAMP)
row,Emax [%],SMILES
1,83,CCCCCCCCCCCCCCCC(=O)N[C@@H](CCC(=O)NCCCC[C@H](NC(=O)CC[C@H](NC(=O)CC[C@H](NC(=O)COCCOCCNC(=O)COCCOCCNC(=O)COCCOCCNC(=O)[C@H](CCCCNC(C)=O)NC(=O)[C@H](CCCCN)NC(=O)[C@H](CCCNC(=N)N)NC(=O)C(C)(C)NC(=O)[C@H](CO)NC(=O)[C@H](Cc1c[nH]c2ccccc12)NC(=O)[C@@H](NC(=O)[C@H](CO)NC(=O)[C@H](CCCC)NC(=O)CNC(=O)[C@H](CCC(=O)O)NC(=O)C(C)(C)NC(=O)C(C)(C)NC(=O)[C@@H](NC(=O)[C@H](CCC(N)=O)NC(=O)[C@H](C)NC(=O)[C@H](CCCNC(=N)N)NC(=O)[C@@H](NC(=O)[C@H](CCCCN)NC(=O)[C@H](CCC(=O)O)NC(=O)[C@H](CCCNC(=N)N)NC(=O)CNC(=O)[C@H](CCC(=O)O)NC(=O)[C@H](CC(C)C)NC(C)=O)C(C)C)[C@@H](C)CC)[C@@H](C)O)C(=O)O)C(=O)O)C(N)=O)C(=O)O [compound 119] (Ac-LEGREKVRAQI[Aib][Aib]EG[Nle]STWS[Aib]RKK(Ac)[AEEA][AEEA][AEEA][γGlu][γGlu]K([γGlu-Palmitoyl])-NH2)
2,92,CCCCCCCCCCCC(=O)N[C@@H](CCC(=O)N[C@@H](CCC(=O)N[C@@H](CCC(=O)NCCOCCOCC(=O)NCCOCCOCC(=O)NCCOCCOCC(=O)NCCCC[C@H](NC(=O)[C@H](CCCCNC(C)=O)NC(=O)[C@H](CCCCN)NC(=O)[C@H](CCCNC(=N)N)NC(=O)C(C)(C)NC(=O)[C@H](CO)NC(=O)[C@H](Cc1c[nH]c2ccccc12)NC(=O)[C@@H](NC(=O)[C@H](CO)NC(=O)[C@H](CCCC)NC(=O)CNC(=O)[C@H](CCC(=O)O)NC(=O)C(C)(C)NC(=O)C(C)(C)NC(=O)[C@@H](NC(=O)[C@H](CCCCNC(C)=O)NC(=O)[C@H](C)NC(=O)[C@H](CCCNC(=N)N)NC(=O)[C@@H](NC(=O)[C@H](CCCCN)NC(=O)[C@H](CCC(=O)O)NC(=O)[C@H](CCCNC(=N)N)NC(=O)CNC(=O)[C@H](CCC(=O)O)NC(=O)[C@H](CC(C)C)NC(C)=O)C(C)C)[C@@H](C)CC)[C@@H](C)O)C(N)=O)C(=O)O)C(=O)O)C(=O)O [compound 120] (Ac-LEGREKVRAK(Ac)I[Aib][Aib]EG[Nle]STWS[Aib]RKK(Ac)K([AEEA-AEEA-AEEA-γGlu-γGlu-γGlu-Lauroyl])-NH2)
3,91,CCCCCCCCCCCCCCCC(=O)N[C@@H](CCC(=O)NCCCC[C@H](NC(=O)CC[C@H](NC(=O)CC[C@H](NC(=O)COCCOCCNC(=O)COCCOCCNC(=O)COCCOCCNC(=O)COCCOCCNC(=O)[C@H](CCCCNC(C)=O)NC(=O)[C@H](CCCCN)NC(=O)[C@H](CCCNC(=N)N)NC(=O)C(C)(C)NC(=O)[C@H](CO)NC(=O)[C@H](Cc1c[nH]c2ccccc12)NC(=O)[C@@H](NC(=O)[C@H](CO)NC(=O)[C@H](CCCC)NC(=O)CNC(=O)[C@H](CCC(=O)O)NC(=O)C(C)(C)NC(=O)C(C)(C)NC(=O)[C@@H](NC(=O)[C@H](CCC(N)=O)NC(=O)[C@H](C)NC(=O)[C@H](CCCNC(=N)N)NC(=O)[C@@H](NC(=O)[C@H](CCCCN)NC(=O)[C@H](CCC(=O)O)NC(=O)[C@H](CCCNC(=N)N)NC(=O)CNC(=O)[C@H](CCC(=O)O)NC(=O)[C@H](CC(C)C)NC(C)=O)C(C)C)[C@@H](C)CC)[C@@H](C)O)C(=O)O)C(=O)O)C(N)=O)C(=O)O [compound 121] (Ac-LEGREKVRAQI[Aib][Aib]EG[Nle]STWS[Aib]RKK(Ac)[AEEA][AEEA][AEEA][AEEA][γGlu][γGlu]K([γGlu-Palmitoyl])-NH2)
4,93,CCCCCCCCCCCCCCCCCC(=O)N[C@@H](CCC(=O)N[C@@H](CCC(=O)N[C@@H](CCC(=O)N[C@@H](CCC(=O)N[C@@H](CCC(=O)NCCCC[C@H](NC(=O)CCOCCOCCOCCOCCNC(=O)CCOCCOCCOCCOCCNC(=O)[C@H](CCCCN)NC(=O)[C@H](CCCCN)NC(=O)[C@H](CCCCN)NC(=O)[C@H](CCCNC(=N)N)NC(=O)C(C)(C)NC(=O)[C@H](CO)NC(=O)[C@H](Cc1c[nH]c2ccccc12)NC(=O)[C@@H](NC(=O)[C@H](CO)NC(=O)[C@H](CCCC)NC(=O)CNC(=O)[C@H](CCC(=O)O)NC(=O)C(C)(C)NC(=O)C(C)(C)NC(=O)[C@@H](NC(=O)[C@H](CCC(N)=O)NC(=O)[C@H](C)NC(=O)[C@H](CCCNC(=N)N)NC(=O)[C@@H](NC(=O)[C@H](CCCCN)NC(=O)[C@H](CCC(=O)O)NC(=O)[C@H](CCCNC(=N)N)NC(=O)CNC(=O)[C@H](CCC(=O)O)NC(=O)[C@H](CC(C)C)NC(C)=O)C(C)C)[C@@H](C)CC)[C@@H](C)O)C(N)=O)C(=O)O)C(=O)O)C(=O)O)C(=O)O)C(=O)O [compound 122] (Ac-LEGREKVRAQI[Aib][Aib]EG[Nle]STWS[Aib]RKKK[PEG4][PEG4]K([γGlu-γGlu-γGlu-γGlu-γGlu-Stearoyl])-NH2)
5,88,CCCCCCCCCCCCCCCCCC(=O)N[C@@H](CCC(=O)N[C@@H](CCC(=O)N[C@@H](CCC(=O)NCCCC[C@H](NC(=O)CCOCCOCCOCCOCCNC(=O)[C@H](CCCCNC(C)=O)NC(=O)[C@H](CCCCN)NC(=O)[C@H](CCCNC(=N)N)NC(=O)C(C)(C)NC(=O)[C@H](CO)NC(=O)[C@H](Cc1c[nH]c2ccccc12)NC(=O)[C@@H](NC(=O)[C@H](CO)NC(=O)[C@H](CCCC)NC(=O)CNC(=O)[C@H](CCC(=O)O)NC(=O)C(C)(C)NC(=O)C(C)(C)NC(=O)[C@@H](NC(=O)[C@H](CCCCNC(C)=O)NC(=O)[C@H](C)NC(=O)[C@H](CCCNC(=N)N)NC(=O)[C@@H](NC(=O)[C@H](CCCCN)NC(=O)[C@H](CCC(=O)O)NC(=O)[C@H](CCCNC(=N)N)NC(=O)CNC(=O)[C@H](CCC(=O)O)NC(=O)[C@H](CC(C)C)NC(C)=O)C(C)C)[C@@H](C)CC)[C@@H](C)O)C(N)=O)C(=O)O)C(=O)O)C(=O)O [compound 123] (Ac-LEGREKVRAK(Ac)I[Aib][Aib]EG[Nle]STWS[Aib]RKK(Ac)[PEG4]K([γGlu-γGlu-γGlu-Stearoyl])-NH2)
6,88,CCCCCCCCCCCCCCCCCC(=O)N[C@@H](CCC(=O)N[C@@H](CCC(=O)N[C@@H](CCC(=O)NCCCC[C@H](NC(=O)CCOCCOCCOCCOCCNC(=O)CCOCCOCCOCCOCCNC(=O)[C@H](CCCCNC(C)=O)NC(=O)[C@H](CCCCN)NC(=O)[C@H](CCCNC(=N)N)NC(=O)C(C)(C)NC(=O)[C@H](CO)NC(=O)[C@H](Cc1c[nH]c2ccccc12)NC(=O)[C@@H](NC(=O)[C@H](CO)NC(=O)[C@H](CCCC)NC(=O)CNC(=O)[C@H](CCC(=O)O)NC(=O)C(C)(C)NC(=O)C(C)(C)NC(=O)[C@@H](NC(=O)[C@H](CCCCNC(C)=O)NC(=O)[C@H](C)NC(=O)[C@H](CCCNC(=N)N)NC(=O)[C@@H](NC(=O)[C@H](CCCCN)NC(=O)[C@H](CCC(=O)O)NC(=O)[C@H](CCCNC(=N)N)NC(=O)CNC(=O)[C@H](CCC(=O)O)NC(=O)[C@H](CC(C)C)NC(C)=O)C(C)C)[C@@H](C)CC)[C@@H](C)O)C(N)=O)C(=O)O)C(=O)O)C(=O)O [compound 124] (Ac-LEGREKVRAK(Ac)I[Aib][Aib]EG[Nle]STWS[Aib]RKK(Ac)[PEG4][PEG4]K([γGlu-γGlu-γGlu-Stearoyl])-NH2)
